# Assay results from ChEMBL document CHEMBL1201862, “PubChem BioAssay data set” (2004).
#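 Briefly, cells in 96-well plates were exposed to five compound concentrations for 48 h, and endpoints were estimated by linear interpolation. GI50 marks 50% less growth.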 Calls of active or inactive are those of the source. Rule as the data show it: active = GI50 up to about 1.1 µM and inactive = higher.
# Assays:
# Test in all cases: inhibition of tumour cell growth, NCI panel, 48 h
# [1] = tested on: SNB-75
# [2] = tested on: HOP-92
# [3] = tested on: COLO 205
# [4] = tested on: DMS-273
# [5] = tested on: LOX IMVI
# [6] = tested on: UACC-62
# [7] = tested on: SNB-78
# [8] = tested on: SK-OV-3
# [9] = tested on: OVCAR-3
# [10] = tested on: M14
# [11] = tested on: SW-620
# [12] = tested on: KM-20L2
# [13] = tested on: A549
# [14] = tested on: NCI-H23
# [15] = tested on: UO-31
# [16] = tested on: NCI-H460
# [17] = tested on: HOP-62
# [18] = tested on: IGROV-1
# [19] = tested on: NCI-H226
# [20] = tested on: XF498
# [21] = tested on: LXFL 529
# [22] = tested on: RXF 393
# [23] = tested on: Malme-3M
# [24] = tested on: K562
# [25] = tested on: HCC 2998
# [26] = tested on: 786-0
# [27] = tested on: MOLT-4
# [28] = tested on: ACHN
# [29] = tested on: SF-539
# [30] = tested on: U-251
# [31] = tested on: KM12
# [32] = tested on: RPMI-8226
# [33] = tested on: SK-MEL-2
# [34] = tested on: DMS-114
# [35] = tested on: RXF 631
# [36] = tested on: M19-MEL
# [37] = tested on: DLD-1
# [38] = tested on: NCI-H522
# [39] = tested on: CCRF-CEM
# [40] = tested on: OVCAR-5
# [41] = tested on: SF-268
# [42] = tested on: TK-10
# [43] = tested on: SK-MEL-5
# [44] = tested on: OVCAR-8
# [45] = tested on: HT-29
# [46] = tested on: UACC-257
# [47] = tested on: SF-295
# [48] = tested on: EKVX
# [49] = tested on: SK-MEL-28
# [50] = tested on: HCT-116
# [51] = tested on: A498
# [52] = tested on: HL-60
# [53] = tested on: HCT-15
# [54] = tested on: SN12C
# [55] = tested on: SNB-19
# [56] = tested on: OVCAR-4
# [57] = tested on: SR
structure (smiles),measurement,setting,value
C/C(CC(=O)NCCc1ccccc1)=N\NS(=O)(=O)c1ccc(C)cc1,GI50,[1],> 100 µM (inactive)
same,GI50,[2],> 100 µM (inactive)
same,GI50,[3],> 100 µM (inactive)
same,GI50,[4],> 100 µM (inactive)
same,GI50,[5],> 100 µM (inactive)
same,GI50,[6],> 100 µM (inactive)
same,GI50,[7],> 100 µM (inactive)
same,GI50,[8],> 100 µM (inactive)
same,GI50,[9],> 100 µM (inactive)
same,GI50,[10],> 100 µM (inactive)
same,GI50,[11],> 100 µM (inactive)
same,GI50,[12],> 100 µM (inactive)
same,GI50,[13],> 100 µM (inactive)
same,GI50,[14],> 100 µM (inactive)
same,GI50,[15],> 100 µM (inactive)
same,GI50,[16],> 100 µM (inactive)
same,GI50,[17],> 100 µM (inactive)
same,GI50,[18],> 100 µM (inactive)
same,GI50,[19],> 100 µM (inactive)
same,GI50,[20],> 100 µM (inactive)
same,GI50,[21],> 100 µM (inactive)
same,GI50,[22],> 100 µM (inactive)
same,GI50,[23],> 100 µM (inactive)
same,GI50,[24],> 100 µM (inactive)
same,GI50,[25],> 100 µM (inactive)
same,GI50,[26],> 100 µM (inactive)
same,GI50,[27],> 100 µM (inactive)
same,GI50,[28],> 100 µM (inactive)
same,GI50,[29],> 100 µM (inactive)
same,GI50,[30],> 100 µM (inactive)
same,GI50,[31],> 100 µM (inactive)
same,GI50,[32],> 100 µM (inactive)
same,GI50,[33],> 100 µM (inactive)
same,GI50,[34],> 100 µM (inactive)
same,GI50,[35],> 100 µM (inactive)
same,GI50,[36],> 100 µM (inactive)
same,GI50,[37],> 100 µM (inactive)
same,GI50,[38],> 100 µM (inactive)
same,GI50,[39],> 100 µM (inactive)
same,GI50,[40],> 100 µM (inactive)
same,GI50,[41],> 100 µM (inactive)
same,GI50,[42],> 100 µM (inactive)
same,GI50,[43],> 100 µM (inactive)
same,GI50,[44],> 100 µM (inactive)
same,GI50,[45],> 100 µM (inactive)
same,GI50,[46],> 100 µM (inactive)
same,GI50,[47],> 100 µM (inactive)
same,GI50,[48],> 100 µM (inactive)
same,GI50,[49],> 100 µM (inactive)
same,GI50,[50],> 100 µM (inactive)
same,GI50,[51],> 100 µM (inactive)
same,GI50,[52],> 100 µM (inactive)
CC(C)C1CN(C(=O)OCc2ccccc2)C2N1C(=O)C2(C)OCc1ccccc1 (stereo not drawn),GI50,[1],16.7 µM (inactive)
same,GI50,[3],19.1 µM (inactive)
same,GI50,[4],35.3 µM (inactive)
same,GI50,[5],27.2 µM (inactive)
same,GI50,[6],25.1 µM (inactive)
same,GI50,[53],44.8 µM
same,GI50,[9],> 100 µM (inactive)
same,GI50,[10],36.1 µM (inactive)
same,GI50,[11],40.9 µM (inactive)
same,GI50,[12],43.9 µM (inactive)
same,GI50,[13],29.2 µM (inactive)
same,GI50,[14],24.5 µM (inactive)
same,GI50,[15],20.3 µM (inactive)
same,GI50,[16],21.6 µM (inactive)
same,GI50,[54],48.6 µM (inactive)
same,GI50,[17],94.4 µM (inactive)
same,GI50,[18],35.9 µM (inactive)
same,GI50,[19],22 µM (inactive)
same,GI50,[20],11.7 µM (inactive)
same,GI50,[55],46.7 µM (inactive)
same,GI50,[21],28.7 µM (inactive)
same,GI50,[22],21.4 µM (inactive)
same,GI50,[23],31.8 µM (inactive)
same,GI50,[24],34.8 µM (inactive)
same,GI50,[25],36.4 µM (inactive)
same,GI50,[26],49.3 µM (inactive)
same,GI50,[27],24.4 µM (inactive)
same,GI50,[28],33 µM (inactive)
same,GI50,[29],56 µM (inactive)
same,GI50,[56],41.9 µM (inactive)
same,GI50,[30],41.7 µM (inactive)
same,GI50,[32],21.4 µM (inactive)
same,GI50,[33],28.2 µM (inactive)
same,GI50,[34],31.3 µM (inactive)
same,GI50,[35],40.6 µM (inactive)
same,GI50,[36],32.4 µM (inactive)
same,GI50,[37],36 µM (inactive)
same,GI50,[39],28.1 µM (inactive)
same,GI50,[41],44.6 µM (inactive)
same,GI50,[42],42.9 µM (inactive)
same,GI50,[43],16 µM (inactive)
same,GI50,[44],45.4 µM (inactive)
same,GI50,[57],29.2 µM (inactive)
same,GI50,[45],42.2 µM (inactive)
same,GI50,[46],28.2 µM (inactive)
same,GI50,[47],34.8 µM (inactive)
same,GI50,[48],34 µM (inactive)
same,GI50,[49],> 100 µM (inactive)
same,GI50,[50],37.6 µM (inactive)
same,GI50,[51],26.8 µM (inactive)
same,GI50,[52],22.6 µM (inactive)
